Patent US20190161499A1, “PESTICIDALLY ACTIVE 1,2,4-TRIAZOLE DERIVATIVES” (SYNGENTA PARTICIPATIONS AG, priority 2015, published 2019)
Read-outs that look alike come from different tables or passages of the source.

Assays:
Format in all cases: in vivo
[1] = tested on: Diabrotica Balteata (Corn Root Worm); assay: whole plant or invertebrate; conditions: 96 h, read-out: effect in at least one of the two categories (mortality or growth inhibition)
Method: Example B3: Diabrotica Balteata (Corn Root Worm)
Maize sprouts, placed on an agar layer in 24-well microtiter plates were treated with aqueous test solutions prepared from 10,000 ppm DMSO stock solutions by spraying. After drying, the plates were infested with L2 larvae (6 to 10 per well). The samples were assessed for mortality and growth inhibition in comparison to untreated samples 4 days after infestation.

[2] = tested on: Spodoptera littoralis (Egyptian Cotton Leaf Worm); assay: Spodoptera littoralis cotton leaf disc spray test; conditions: foliar, 72 h, application rate 200 ppm, L1 larvae, 3 days after infestation, read-out: control (at least one of mortality, anti-feedant effect, growth inhibition)
Method: Spodoptera littoralis (Egyptian Cotton Leaf Worm)
Cotton leaf discs were placed on agar in 24-well microtiter plates and sprayed with aqueous test solutions prepared from 10,000 ppm DMSO stock solutions. After drying, the leaf discs were infested with five L1 larvae. The samples were assessed for mortality, anti-feedant effect, and growth inhibition in comparison to untreated samples 3 days after infestation. Control of Spodoptera littoralis by a test sample is when at least one of mortality, anti-feedant effect, and growth inhibition is higher than the untreated sample.

[3] = tested on: Plutella xylostella (Diamond Back Moth); assay: whole plant or invertebrate; conditions: 120 h, application rate 200 ppm, L2 larvae, 5 days after infestation, read-out: effect in at least one of the two categories (mortality or growth inhibition)
Method: Example B2: Plutella xylostella (Diamond Back Moth)
24-well microtiter plates with artificial diet were treated with aqueous test solutions prepared from 10,000 ppm DMSO stock solutions by pipetting. After drying, the plates were infested with L2 larvae (10 to 15 per well). The samples were assessed for mortality and growth inhibition in comparison to untreated samples 5 days after infestation.

[4] = application rate 200 ppm, L2 larvae, 4 days after infestation

| SMILES | percent effect (mortality or growth inhibition) at 200 ppm [1, 4] | percent control (mortality, anti-feedant effect or growth inhibition) at 200 ppm [2] | percent effect (mortality or growth inhibition) at 200 ppm [3] | percent effect (mortality or growth inhibition) at 200 ppm [1] |
| --- | --- | --- | --- | --- |
| Fc1ccccc1-n1nc(C2CC2)nc1CN1CCC(c2ncccn2)CC1 [Example 1.93] | ≥ 80% | – | – | – |
| Fc1ccccc1-n1nc(-c2ccc(Cl)cn2)nc1CN1CCC(c2ncccn2)CC1 [Example 1.4] | ≥ 80% | ≥ 80% | ≥ 80% | – |
| Fc1ccccc1-n1nc(-c2ccc(Cl)cc2)nc1CN1CCC(c2ncc[nH]2)CC1 [Example 1.112] | ≥ 80% | – | – | – |
| Cc1nccc(C2CCN(Cc3nc(-c4ccc(Cl)cc4)nn3-c3ccccc3F)CC2)n1 [Example 1.110] | ≥ 80% | ≥ 80% | ≥ 80% | – |
| Fc1ccccc1-n1nc(-c2ccc(Cl)cc2)nc1CN1CCC(c2ccon2)CC1 [Example 1.120] | ≥ 80% | ≥ 80% | ≥ 80% | – |
| Cc1ccc(C)c(-n2nc(-c3ccc(Cl)cc3)nc2CN2CCC(c3ncccn3)CC2)c1 [Example 1.74] | ≥ 80% | – | – | – |
| CC(C)c1nc(CN2CCC(c3ncccn3)CC2)n(-c2ccccc2F)n1 [Example 1.100] | ≥ 80% | – | – | – |
| NC(=O)C1CCN(Cc2nc(-c3ccc(Cl)cc3)nn2-c2ccccc2F)CC1 [Example 1.47] | ≥ 80% | ≥ 80% | – | – |
| COc1ccc(-c2nc(CN3CCC(c4ncccn4)CC3)n(-c3ccccc3F)n2)cc1 [Example 1.101] | ≥ 80% | ≥ 80% | – | – |
| Fc1ccccc1-n1nc(-c2ccc(Cl)cc2)nc1CN1CCC(c2ncccn2)C1 (stereo not drawn) [Example 5.7] | ≥ 80% | – | ≥ 80% | – |
| Cc1cccc(-n2nc(-c3ccc(Cl)cc3)nc2CN2CCC(c3ncccn3)CC2)c1 [Example 1.51] | ≥ 80% | – | – | – |
| Fc1ccccc1-n1nc(-c2ccccc2)nc1CN1CCC(c2ncccn2)CC1 [Example 1.94] | ≥ 80% | ≥ 80% | – | – |
| Fc1ccccc1-n1nc(-c2ccc(Cl)cc2)nc1CN1CCC(c2nccs2)CC1 [Example 1.115] | ≥ 80% | ≥ 80% | – | – |
| Clc1ccc(-c2nc(CN3CCC(c4ncccn4)CC3)n(-c3cc(Cl)ccc3Cl)n2)cc1 [Example 1.86] | ≥ 80% | – | – | – |
| Clc1ccc(-c2nc(CN3CCC(c4ncccn4)CC3)n(-c3ccc(Cl)cc3Cl)n2)cc1 [Example 1.65] | ≥ 80% | ≥ 80% | – | – |
| Fc1ccccc1-n1nc(-c2ccc(Cl)cc2)nc1CN1CCC(c2ncno2)CC1 [Example 1.121] | ≥ 80% | – | – | – |
| Fc1ccccc1-n1nc(-c2ccc(Cl)cc2)nc1CN1CCC(c2cc(Cl)cc(Cl)c2)(C(F)(F)F)C1 (stereo not drawn) [Example 5.2] | – | – | ≥ 80% | – |
| Cc1ccnc(C2CCN(Cc3nc(-c4ccc(Cl)cc4)nn3-c3ccccc3F)CC2)n1 [Example 1.125] | ≥ 80% | ≥ 80% | – | – |
| Cc1ccc(-n2nc(-c3ccc(Cl)cc3)nc2CN2CCC(c3ncccn3)CC2)cc1 [Example 1.52] | ≥ 80% | ≥ 80% | – | – |
| CCc1nc(CN2CCC(c3ncccn3)CC2)n(-c2ccccc2F)n1 [Example 1.99] | ≥ 80% | – | – | – |
| COc1cccc(-n2nc(-c3ccc(Cl)cc3)nc2CN2CCC(c3ncccn3)CC2)c1 [Example 1.75] | ≥ 80% | – | – | – |
| COc1ccc(-n2nc(-c3ccc(Cl)cc3)nc2CN2CCC(c3ncccn3)CC2)cc1 [Example 1.79] | ≥ 80% | ≥ 80% | – | – |
| Fc1ccccc1-n1nc(Cc2ccc(Cl)cc2)nc1CN1CCC(c2ncccn2)CC1 [Example 1.91] | ≥ 80% | ≥ 80% | – | – |
| Cc1ccc(-n2nc(-c3ccc(Cl)cc3)nc2CN2CCC(c3ncccn3)CC2)c(C)c1 [Example 1.87] | ≥ 80% | ≥ 80% | – | – |
| Cc1ccc(-c2nc(CN3CCC(c4ncccn4)CC3)n(-c3ccccc3F)n2)cc1F [Example 1.92] | ≥ 80% | ≥ 80% | – | – |
| Fc1ccccc1-n1nc(-c2ccc(Cl)cc2)nc1CN1CCC2(CC1)CC(C1CC1)=NO2 [Example 5.4] | ≥ 80% | ≥ 80% | – | – |

| SMILES | percent effect (mortality or growth inhibition) at 200 ppm [1, 4] | percent control (mortality, anti-feedant effect or growth inhibition) at 200 ppm [2] | percent effect (mortality or growth inhibition) at 200 ppm [3] | percent effect (mortality or growth inhibition) at 200 ppm [1] |
| --- | --- | --- | --- | --- |
| Fc1ccccc1-n1nc(-c2ccc(Cl)cc2)nc1CN1CC=C(c2ccc(Cl)cn2)CC1 [Example 3.1] | – | – | – | ≥ 80% |
| Fc1ccccc1-n1nc(-c2ccc(Cl)cc2)nc1CN1CCC(c2ncon2)CC1 [Example 1.113] | ≥ 80% | ≥ 80% | – | – |
| CC(C)n1nc(-c2ccc(Cl)cc2)nc1CN1CCC(c2ncccn2)CC1 [Example 1.60] | ≥ 80% | – | – | – |
| Fc1ccccc1-n1nc(-c2ccc(Cl)cc2)nc1CN1CCC(c2cscn2)CC1 [Example 1.119] | ≥ 80% | ≥ 80% | – | – |
| Cc1ccc(-n2nc(-c3ccc(Cl)cc3)nc2CN2CCC(c3ncccn3)CC2)cc1C [Example 1.73] | ≥ 80% | – | – | – |
| Clc1ccc(-c2nc(CN3CCC(c4ncccn4)CC3)n(C3CCC3)n2)cc1 [Example 1.58] | ≥ 80% | – | – | – |
| Cc1cccc(-c2nc(CN3CCC(c4ncccn4)CC3)n(-c3ccccc3F)n2)c1 [Example 1.37] | ≥ 80% | ≥ 80% | – | – |
| CCOC(=O)C1CCCCN1Cc1nc(-c2ccc(Cl)cc2)nn1-c1ccccc1F (stereo not drawn) [Example 5.22] | ≥ 80% | – | – | – |
| Fc1ccccc1-n1nc(-c2cccs2)nc1CN1CCC(c2ncccn2)CC1 [Example 1.96] | ≥ 80% | – | – | – |
| CCOC(=O)C1CCCN(Cc2nc(-c3ccc(Cl)cc3)nn2-c2ccccc2F)C1 (stereo not drawn) [Example 5.17] | ≥ 80% | – | – | – |
| Cc1ccc(-c2nc(CN3CCC(c4ncccn4)CC3)n(-c3ccccc3F)n2)cc1 [Example 1.95] | ≥ 80% | ≥ 80% | – | – |
| Fc1ccccc1-n1nc(-c2ccc(Cl)cc2)nc1CN1CCC(C(F)(F)F)CC1 [Example 1.5] | ≥ 80% | – | – | – |
| Cc1ccccc1-c1nc(CN2CCC(c3ncccn3)CC2)n(-c2ccccc2F)n1 [Example 1.36] | ≥ 80% | – | – | – |
| Fc1ccccc1-n1nc(-c2ccc(Cl)cc2)nc1CN1CCC(c2ccncn2)CC1 [Example 1.116] | ≥ 80% | ≥ 80% | – | – |
| CCC1CCCN(Cc2nc(-c3ccc(Cl)cc3)nn2-c2ccccc2F)C1 (stereo not drawn) [Example 5.21] | ≥ 80% | – | – | – |
| CC1CCCN1Cc1nc(-c2ccc(Cl)cc2)nn1-c1ccccc1F (stereo not drawn) [Example 5.30] | ≥ 80% | – | – | – |
| Fc1ccccc1-n1nc(-c2ccccn2)nc1CN1CCC(c2ncccn2)CC1 [Example 1.102] | ≥ 80% | – | – | – |
| Cc1nnc(C2CCN(Cc3nc(-c4ccc(Cl)cc4)nn3-c3ccccc3F)CC2)o1 [Example 1.118] | ≥ 80% | – | – | – |
| Cn1ccnc1C1CCN(Cc2nc(-c3ccc(Cl)cc3)nn2-c2ccccc2F)CC1 [Example 1.117] | ≥ 80% | ≥ 80% | – | – |
| Clc1ccc(-c2nc(CN3CCC(c4ncccn4)CC3)n(-c3cccc(Br)c3)n2)cc1 [Example 1.57] | ≥ 80% | – | – | – |
| Clc1ccc(-c2nc(CN3CCC(c4ncccn4)CC3)n(-c3cccc(Cl)c3)n2)cc1 [Example 1.69] | ≥ 80% | – | – | – |
| Fc1ccccc1-n1nc(-c2ccc(Cl)cc2)nc1CN1CCC2(CC1)CC(C(F)(F)F)=NO2 [Example 5.5] | ≥ 80% | ≥ 80% | – | – |
| CCC1CCCCN1Cc1nc(-c2ccc(Cl)cc2)nn1-c1ccccc1F (stereo not drawn) [Example 5.16] | ≥ 80% | – | – | – |
| Cc1cccc(-n2nc(-c3ccc(Cl)cc3)nc2CN2CCC(c3ncccn3)CC2)c1C [Example 1.82] | ≥ 80% | ≥ 80% | – | – |
| Clc1ccc(-c2nc(CN3CCC(c4ncccn4)CC3)n(-c3ccc(Cl)c(Cl)c3)n2)cc1 [Example 1.50] | ≥ 80% | – | – | – |
